Laboratory results as given in patent US6737383B1, “Herbicidal oxadiazolidines” (priority 1999, dated 2004).

Key:
bedstraw = experiment: Test B pre/postemergence bedstraw; assay type: in vivo, Galium aparine
How it was run: (§1)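 Response is a visual 0-to-10 score relative to untreated plants, where 0 means no effect and 10 means complete control, taken twelve to sixteen days after application. Treatments went onto soil at planting and onto foliage of 1- to 4-leaf plants, using a surfactant-containing non-phytotoxic solvent.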

blackgrass = experiment: Test B pre/postemergence blackgrass; assay type: in vivo, Alopecurus myosuroides; conditions: for Plant response rating, Blackgrass: scale of 0 to 10 where 0 is no effect and 10 is complete control
How it was run: as §1

surinam grass = experiment: Test B pre/postemergence surinam grass; assay type: in vivo, Brachiaria decumbens
How it was run: as §1

cocklebur = experiment: Test B pre/postemergence cocklebur; assay type: in vivo, Xanthium strumarium
How it was run: as §1

corn = experiment: Test B pre/postemergence corn; assay type: in vivo, Zea mays
How it was run: as §1

crabgrass = experiment: Test B pre/postemergence crabgrass; assay type: in vivo, Digitaria sanguinalis
How it was run: as §1

giant foxtail = experiment: Test B pre/postemergence giant foxtail; assay type: in vivo, Setaria faberii
How it was run: as §1

morningglory = experiment: Test B pre/postemergence morningglory; assay type: in vivo, Ipomoea hederacea
How it was run: as §1

pigweed = experiment: Test B pre/postemergence pigweed; assay type: in vivo, Amaranthus retroflexus
How it was run: as §1

rape = experiment: Test B pre/postemergence rape; assay type: in vivo, Brassica napus
How it was run: as §1

soybean = experiment: Test B pre/postemergence soybean; assay type: in vivo, Glycine max
How it was run: as §1

sugar beet = experiment: Test B pre/postemergence sugar beet; assay type: in vivo, Beta vulgaris
How it was run: as §1

velvetleaf = experiment: Test B pre/postemergence velvetleaf; assay type: in vivo, Abutilon theophrasti
How it was run: as §1

wheat = experiment: Test B pre/postemergence wheat; assay type: in vivo, Triticum aestivum
How it was run: as §1

wild oat = experiment: Test B pre/postemergence wild oat; assay type: in vivo, Avena fatua
How it was run: as §1

purple nutsedge = experiment: Test B pre/postemergence purple nutsedge; assay type: in vivo, Cyperus rotundus
How it was run: as §1

[1] = Postemergence, Rate 62 g/ha, scale of 0 to 10, 0 is no effect, 10 is complete control
[2] = Postemergence, Rate 125 g/ha, scale of 0 to 10 where 0 is no effect and 10 is complete control
[3] = Postemergence, Rate 250 g/ha, scale of 0 to 10, 0 is no effect, 10 is complete control
[4] = Preemergence, Rate 62 g/ha, scale 0 to 10 (0 no effect, 10 complete control)
[5] = Preemergence, Rate 500 g/ha, scale of 0 to 10 where 0 is no effect and 10 is complete control
[6] = Postemergence, Rate 500 g/ha, scale of 0 to 10 where 0 is no effect and 10 is complete control
[7] = Preemergence, Rate 125 g/ha, scale of 0 to 10 where 0 is no effect and 10 is complete control

CC(C)N(C(=O)n1oc(=O)n(CCC(F)(F)F)c1=O)c1ccccc1 [Compound 584]
2: Plant response rating, Cocklebur (cocklebur; [2]) | Plant response rating, Corn (corn; [2]) | Corn plant response rating (0 to 10 scale) (corn; Preemergence, Rate 250 g/ha) | Plant response rating, Redroot pigweed (pigweed; [2]) | Redroot pigweed plant response rating (pigweed; [3]) | Plant response rating, Sugarbeets (sugar beet; [2]) | Sugarbeets plant response rating (sugar beet; [7]) | Plant response rating, Wheat (wheat; [2]) | Wild oats plant response rating (wild oat; [3]) | Wild oats plant response rating (wild oat; [7])
9: Bedstraw plant response rating (bedstraw; [3]) | Bedstraw plant response rating (bedstraw; [4]) | Bedstraw plant response rating (0 to 10 scale) (bedstraw; Preemergence, Rate 250 g/ha) | Bedstraw plant response rating (bedstraw; [5]) | Blackgrass plant response rating (blackgrass; [4]) | Plant response rating, B. signalgrass (surinam grass; [6]) | B. signalgrass plant response rating (surinam grass; [5]) | Plant response rating, Crabgrass (crabgrass; [6]) | Crabgrass plant response rating (crabgrass; [5]) | Giant foxtail plant response rating (giant foxtail; [3]) | Plant response rating, Giant foxtail (giant foxtail; [6]) | Giant foxtail plant response rating (giant foxtail; [4]) | Redroot pigweed plant response rating (pigweed; [5]) | Rape plant response rating (rape; [3]) | Plant response rating, Rape (rape; [6]) | Wild oats plant response rating (wild oat; [5])
6: Crabgrass plant response rating (crabgrass; [3]) | Plant response rating, Wheat (wheat; [6])
7: Plant response rating, Blackgrass (blackgrass; Postemergence, Rate 125 g/ha) | Blackgrass plant response rating (blackgrass; [3]) | Plant response rating, Blackgrass (blackgrass; Postemergence, Rate 500 g/ha) | B. signalgrass plant response rating (surinam grass; [3]) | B. signalgrass plant response rating (surinam grass; [4]) | B. signalgrass plant response rating (surinam grass; [7]) | Plant response rating, Crabgrass (crabgrass; [2]) | Giant foxtail plant response rating (giant foxtail; [1]) | Plant response rating, Redroot pigweed (pigweed; [6]) | Redroot pigweed plant response rating (pigweed; [4]) | Plant response rating, Wild oats (wild oat; [6])
5: Bedstraw plant response rating (bedstraw; [1]) | Plant response rating, Bedstraw (bedstraw; [2]) | Blackgrass plant response rating (blackgrass; [1]) | Morningglory plant response rating (morningglory; [3]) | Sugarbeets plant response rating (sugar beet; [3]) | Sugarbeets plant response rating (sugar beet; [5]) | Plant response rating, Velvetleaf (velvetleaf; [6]) | Velvetleaf plant response rating (velvetleaf; [5])
1: Crabgrass plant response rating (crabgrass; [1]) | Morningglory plant response rating (morningglory; [1])
0: Cocklebur plant response rating (cocklebur; [1]) | Cocklebur plant response rating (cocklebur; [4]) | Cocklebur plant response rating (cocklebur; [7]) | Cocklebur plant response rating (0 to 10 scale) (cocklebur; Preemergence, Rate 250 g/ha) | Cocklebur plant response rating (cocklebur; [5]) | Corn plant response rating (corn; [1]) | Corn plant response rating (corn; [4]) | Corn plant response rating (corn; [7]) | Soybean plant response rating (soybean; [4]) | Soybean plant response rating (soybean; [7]) | Soybean plant response rating (soybean; [5]) | Sugarbeets plant response rating (sugar beet; [4]) | Velvetleaf plant response rating (velvetleaf; [4]) | Velvetleaf plant response rating (velvetleaf; [7]) | Wheat plant response rating (wheat; [4]) | Wheat plant response rating (wheat; [7]) | Plant response rating, Wild oats (wild oat; [2]) | Wild oats plant response rating (wild oat; [4]) | Nutsedge plant response rating (purple nutsedge; [1]) | Plant response rating, Nutsedge (purple nutsedge; [2]) | Nutsedge plant response rating (purple nutsedge; [3]) | Nutsedge plant response rating (purple nutsedge; [4]) | Nutsedge plant response rating (purple nutsedge; [7]) | Nutsedge plant response rating (purple nutsedge; [5])
10: Giant foxtail plant response rating (giant foxtail; [5])
4: Cocklebur plant response rating (cocklebur; [3]) | Plant response rating, Cocklebur (cocklebur; [6]) | Plant response rating, Corn (corn; [6]) | Plant response rating, Morningglory (morningglory; [2]) | Morningglory plant response rating (morningglory; [4]) | Morningglory plant response rating (morningglory; [7]) | Plant response rating, Rape (rape; [2]) | Rape plant response rating (rape; [7]) | Rape plant response rating (rape; [5]) | Plant response rating, Soybean (soybean; [6])
8: Blackgrass plant response rating (0 to 10 scale) (blackgrass; Preemergence, Rate 250 g/ha) | Crabgrass plant response rating (crabgrass; [4]) | Crabgrass plant response rating (crabgrass; [7]) | Plant response rating, Giant foxtail (giant foxtail; [2]) | Giant foxtail plant response rating (giant foxtail; [7]) | Redroot pigweed plant response rating (pigweed; [7]) | Plant response rating, Sugarbeets (sugar beet; [6])
3: B. signalgrass plant response rating (surinam grass; [1]) | Plant response rating, B. signalgrass (surinam grass; [2]) | Corn plant response rating (corn; [3]) | Corn plant response rating (corn; [5]) | Plant response rating, Morningglory (morningglory; [6]) | Morningglory plant response rating (morningglory; [5]) | Rape plant response rating (rape; [1]) | Rape plant response rating (rape; [4]) | Plant response rating, Soybean (soybean; [2]) | Soybean plant response rating (soybean; [3]) | Plant response rating, Velvetleaf (velvetleaf; [2]) | Velvetleaf plant response rating (velvetleaf; [3]) | Wheat plant response rating (wheat; [3]) | Wheat plant response rating (wheat; [5]) | Plant response rating, Nutsedge (purple nutsedge; [6])
